Target: T1, KCC4 (Homo sapiens, UniProt Q9Y666)
T1 construct: expressed in transfected cells; host or cells: HEK-293
T1 sequence (Q9Y666 1-1083): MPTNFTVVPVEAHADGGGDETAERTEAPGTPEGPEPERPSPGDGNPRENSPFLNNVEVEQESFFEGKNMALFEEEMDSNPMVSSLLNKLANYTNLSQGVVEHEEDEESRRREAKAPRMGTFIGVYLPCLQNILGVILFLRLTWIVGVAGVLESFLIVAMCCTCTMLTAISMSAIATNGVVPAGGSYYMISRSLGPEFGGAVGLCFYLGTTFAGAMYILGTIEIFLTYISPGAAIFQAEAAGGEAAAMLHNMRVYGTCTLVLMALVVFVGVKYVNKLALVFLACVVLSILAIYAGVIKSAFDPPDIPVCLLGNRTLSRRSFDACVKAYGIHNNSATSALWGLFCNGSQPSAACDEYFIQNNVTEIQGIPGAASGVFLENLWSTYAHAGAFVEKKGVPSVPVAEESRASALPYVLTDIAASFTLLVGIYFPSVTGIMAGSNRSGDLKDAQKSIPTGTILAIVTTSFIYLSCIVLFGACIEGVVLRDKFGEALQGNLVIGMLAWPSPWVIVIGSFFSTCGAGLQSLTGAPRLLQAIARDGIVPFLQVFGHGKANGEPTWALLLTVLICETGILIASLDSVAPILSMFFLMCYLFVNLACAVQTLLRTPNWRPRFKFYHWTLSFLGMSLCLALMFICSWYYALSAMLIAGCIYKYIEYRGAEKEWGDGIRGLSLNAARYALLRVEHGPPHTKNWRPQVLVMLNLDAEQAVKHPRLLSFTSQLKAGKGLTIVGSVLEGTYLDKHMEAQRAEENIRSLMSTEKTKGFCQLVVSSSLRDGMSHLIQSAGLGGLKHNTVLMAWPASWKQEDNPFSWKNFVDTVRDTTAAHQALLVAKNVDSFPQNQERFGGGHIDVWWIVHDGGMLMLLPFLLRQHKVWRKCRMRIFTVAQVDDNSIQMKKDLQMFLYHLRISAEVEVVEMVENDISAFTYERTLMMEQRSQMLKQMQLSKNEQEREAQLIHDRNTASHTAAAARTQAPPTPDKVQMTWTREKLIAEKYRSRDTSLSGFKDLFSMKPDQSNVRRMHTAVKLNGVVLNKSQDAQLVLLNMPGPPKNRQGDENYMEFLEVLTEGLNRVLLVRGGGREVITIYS
Assay: Tl+ flux assay in HEK-293 cells expressing KCC4
Assay type: cell-based
Details: read-out: concentration at which effects on KCC4 were seen (EC50 chart, FIG. 1G)
Protocol: FLIPR TI Flux assay. HEK-293 cells were washed with HBSS, and then incubated with loading buffer containing TI sensitive fluorescent dye (https://www.moleculardevices.com), 20 μM bumetanide 20 μM ouabain and 2.5 mM probenecid for 1 h at room temperature (RT) under control conditions or with drugs in the dark using a FlexStation 3 microplate reader (Molecular Devices) and imaged […] for 30 min. Stimulus buffer was added containing 5 mM K^+/0.5 mM Tl^+ and cells were imaged every 1.5 over a 190 second time course The initial rate Tl^+ uptake (Relative Fluorescence Units (RFU) per second) was determined following addition of the stimulus buffer as outlined previously (Conway et al., 2017, supra) (Lee et al., 2022, supra).
Several studies have shown that the activity and plasma membrane accumulation of KCC2 is potentiated via phosphorylation of S940, a process mediated by the activity of protein kinase C and protein phosphatase 1 (Lee et al., 2011, supra; Lee et al., J Biol Chem 282, 29777-29784 (2007); Moore et al., Proc. Natl. Acad. Sci. U.S.A 115, 10166-10171 (2018); Moore et al., Trends Neurosci. 40, 555-571 (2017); Silayeva et al., Proc. Natl. Acad. Sci. U.S.A 112, 3523-3528 (2015)). […] Compared to KCC2, effects on KCC3, KCC4, and NKCC1 were only seen at concentrations more than 35-fold that of KCC2 (≥100 μM) (FIG. 1G).

## C[C@@H]1CN(c2nc3c(c(Nc4ccc(C5CCCCC5)cc4)n2)COC3)CCO1 [Compound A, (R)—N-(4-cyclohexylphenyl)-2-(2-methylmorpholino)-5,7-dihydrofuro[3,4-d]pyrimidin-4-amine]
  EC50: ≥ 100 µM

Reference: US20260191874A1, “FUSED AMINO PYRIMIDINE COMPOUNDS FOR TREATMENT OF AUTISM SPECTRUM DISORDER, OBSESSIVE COMPULSIVE DISORDER AND TICS” (Ovid Therapeutics Inc., priority 2024, published 2026)
